# Assays:
# [1] = tested on: C. elegans N2 worms; experiment: C. elegans lifespan analysis; type: in vivo; conditions: resveratrol 50 μM
# Excerpt: (§1) FIG. 4A: Chemical structure of resveratrol. FIG. 4B: Yeast cell lysates and human HeLa cell lysates were each treated with resveratrol in vitro followed by thermolysin digestion and silver staining. Protected bands of similar size were detected. FIG. 4C: Resveratrol protects TAP-tagged eIF4A, but not an unrelated Htb2, protein from proteolysis. Arrow: protein protected from subtilisin proteolysis (H. sapiens (SEQ ID NO:1), M. musculus (SEQ ID NO:2), X. laevis (SEQ ID NO:3), D. melanogaster (SEQ ID NO:4), C. elegans (SEQ ID NO:5), S. purpuratus (SEQ ID NO:6), C. reinhardtii (SEQ ID NO:7), A. thaliana (SEQ ID NO:8), H. andersenii (SEQ ID NO:9), S. cerevisiae (SEQ ID NO:10)). FIG. 4D: Resveratrol inhibits eIF4A-dependent translation in HEK 293 cells as assayed by bicistronic translation reporters. […] FIG. 4E: eIF4A is required for longevity in resveratrol-treated animals. Resveratrol (50 μM) lengthens the lifespan of wild-type N2 worms fed control (gfp) RNAi (green), but not worms fed eIF4A (inf-1) RNAi (red) or daf-16 RNAi (blue). gfp(RNAi), mVeh=19 (n=74), mRSV=20 (n=78), P=0.0006***; inf-1(RNAi), mVeh=26 (n=76), mRSV=24 (n=79), P=0.4687; daf-16(RNAi), mVeh=17 (n=78), mRSV=17 (n=76), P=0.3305. m, mean lifespan (days of adulthood); n, number of animals tested.
# N2 wild-type strains were maintained at 20° C. on standard nematode growth medium (NGM) seeded with E. coli OP50 as described (Brenner (1974) Genetics 77: 71-94). E. coli RNAi strains were obtained from Open Biosystems; clones were verified by sequencing. To make NGM plates containing resveratrol or vehicle, 240 μl of a solution containing 2.5 mM resveratrol (or the equivalent amount of ethanol, for vehicle control), 20% DMSO, 20% ethanol, 10% phosphate buffered saline (PBS), and 50% ddH20 were spread on top of the NGM plate, making a 50 μM final concentration of resveratrol in the plate. Resveratrol was dissolved in 95% ethanol and stored in 4° C.
# Lifespan analysis was conducted with N2 worms at 20° C. Eggs were added to NGM plates containing OP50. […]
# [2] = Precipitation in yeast culture medium; type: physicochemical; conditions: final concentration ˜1 mM
# Excerpt: For cytotoxic and cytostatic small molecules, deletion mutants in their target often would have increased sensitivity to the drug (and overexpression could decrease sensitivity). Indeed, this is the basis for the elegant haploinsufficiency profiling (HIP) strategy (Giaever et al. (1999) Nat Genet. 21: 278-283). However, an inherent limitation of this type of fitness-based methods is that they are applicable only to drugs that affect cell growth/viability, i.e., cytotoxic or cytostatic drugs. […] A key advantage of DARTS is that it is independent of the drug's biological phenotype, and thus is not limited to the studies of cytotoxic/cytostatic drugs or drugs that induce transcriptional or morphological changes which have been the limitation of previous methods.
# [3] = target: T1, TAP-tagged Tif1 (eIF4A) (Saccharomyces cerevisiae, UniProt P10081); experiment: DARTS western blot with TAP-tagged eIF4A yeast strain; type: binding; conditions: FIG. 10
# T1 construct: endogenous in cells; host or cells: TAP-tagged eIF4A yeast strain (Ghaemmaghami et al. 2003 collection)
# T1 sequence (P10081 1-395): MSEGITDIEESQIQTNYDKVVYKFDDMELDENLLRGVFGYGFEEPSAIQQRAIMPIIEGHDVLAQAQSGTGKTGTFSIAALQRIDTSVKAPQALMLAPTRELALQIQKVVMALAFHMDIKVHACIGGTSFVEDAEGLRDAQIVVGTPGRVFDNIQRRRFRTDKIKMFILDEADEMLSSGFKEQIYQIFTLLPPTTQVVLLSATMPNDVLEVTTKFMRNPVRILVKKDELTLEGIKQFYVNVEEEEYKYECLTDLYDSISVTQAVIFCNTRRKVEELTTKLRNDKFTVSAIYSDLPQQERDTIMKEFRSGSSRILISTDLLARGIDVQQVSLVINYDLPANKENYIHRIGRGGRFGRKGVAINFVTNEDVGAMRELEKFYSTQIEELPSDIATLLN
# Excerpt: as §1
# Arrow: protein protected from proteolysis. […]
# [4] = target: Tif1 A64Q point mutant (Saccharomyces cerevisiae, UniProt P10081, A64Q); experiment: DARTS target mutation analysis; type: binding, yeast; conditions: FIG. 4C
# Excerpt: This enrichment was confirmed by western blotting using the TAP-tagged (Ghaemmaghami et al. (2003) Nature 425: 737-741) eIF4A yeast strain (FIG. 10). […] While the alanine is conserved throughout fungi and animals, plants have a glutamine at this position and the bulkier side chain is hypothesized to protect plant eIF4A from resveratrol inhibition by minimizing self binding.
# [5] = target: T2, in vitro translated firefly luciferase (Photinus pyralis, UniProt P08659); experiment: Effect on firefly luciferase reaction in luciferase assay kits; type: biochemical
# T2 construct: made in house
# Excerpt: Our data in FIG. 4D were based on the Dual-Glo kit, in which the luciferase reaction is not affected by resveratrol. Also, there was no resveratrol added to the in vitro luciferase assay reactions in FIG. 4D. Rather, resveratrol was used to treat cells and washed away before the cells were lysed for luciferase assay.
# T2 sequence (P08659 whole entry): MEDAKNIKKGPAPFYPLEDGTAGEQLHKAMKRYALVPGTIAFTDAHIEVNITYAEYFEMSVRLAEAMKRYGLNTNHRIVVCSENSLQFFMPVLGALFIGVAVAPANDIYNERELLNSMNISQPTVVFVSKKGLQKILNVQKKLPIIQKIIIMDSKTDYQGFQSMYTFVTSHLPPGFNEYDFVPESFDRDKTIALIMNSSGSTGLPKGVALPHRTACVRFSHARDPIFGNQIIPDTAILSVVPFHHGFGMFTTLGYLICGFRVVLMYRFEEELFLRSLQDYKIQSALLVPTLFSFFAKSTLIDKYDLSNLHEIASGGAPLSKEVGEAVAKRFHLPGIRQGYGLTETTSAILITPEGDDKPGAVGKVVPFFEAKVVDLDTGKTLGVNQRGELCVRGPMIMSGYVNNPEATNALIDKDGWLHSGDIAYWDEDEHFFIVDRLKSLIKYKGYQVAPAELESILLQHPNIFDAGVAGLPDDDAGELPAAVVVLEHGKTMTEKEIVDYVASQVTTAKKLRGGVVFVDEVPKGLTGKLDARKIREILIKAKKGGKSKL
# Sequence of Tif1 A64Q point mutant (P10081 whole entry A64Q): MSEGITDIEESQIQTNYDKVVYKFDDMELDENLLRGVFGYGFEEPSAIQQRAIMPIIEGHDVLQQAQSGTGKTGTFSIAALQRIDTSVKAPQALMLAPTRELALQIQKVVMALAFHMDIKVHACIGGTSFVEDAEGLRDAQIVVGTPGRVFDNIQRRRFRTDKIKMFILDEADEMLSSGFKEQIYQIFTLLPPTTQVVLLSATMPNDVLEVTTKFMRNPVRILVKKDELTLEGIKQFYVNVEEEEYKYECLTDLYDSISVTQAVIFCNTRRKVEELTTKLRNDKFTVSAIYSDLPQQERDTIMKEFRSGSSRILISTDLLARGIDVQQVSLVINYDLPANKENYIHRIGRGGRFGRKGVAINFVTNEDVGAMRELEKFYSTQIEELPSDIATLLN
structure (smiles),measurement,setting,value
Oc1ccc(C=Cc2cc(O)cc(O)c2)cc1 [resveratrol],mean lifespan,"[1]; N2 worms fed daf-16(RNAi), vehicle 17, P=0.3305",17 days of adulthood
same,mean lifespan,"[1]; N2 worms fed gfp(RNAi) control, vehicle 19, P=0.0006",20 days of adulthood
same,mean lifespan,"[1]; N2 worms fed inf-1(RNAi) (eIF4A), vehicle 26, P=0.4687",24 days of adulthood
same,behaviour in culture medium,[2],precipitated out of the culture medium
same,protection of TAP-tagged Tif1 from proteolysis,[3],protects the TAP-tagged Tif1
same,effect of Tif1 A64Q point mutation on resveratrol protection,[4],confers resistance to resveratrol
same,firefly luciferase readout,[5]; Bright-Glo kit (Promega #E2610),significantly decreased
same,firefly luciferase readout,[5]; Dual-Glo kit (Promega #E2940),little or no inhibition
